# Results as given in US12545936B2, “Expression and secretion of UV absorbent material from transformed bacteria” (University of Cincinnati, priority 2021, dated 2026).
# “Also recorded” adds a separate entry of the source.
# System: human skin tissues
# Test: UV irradiation of human skin explants, cleaved caspase-3 immunohistochemical staining
# Type: cell-based
# Method: MAAs extracted from the engineered bacteria of the present invention were evaluated. Human skin was obtained from discarded tissue from elective procedures. The skin tissue was cleaned, trimmed, sterilized and plated in an organ culture medium overnight at 33° C. MAA extract or appropriate controls were applied on skin tissues, after which they were exposed to 135 mJ/cm2 UV-A and UV-B light. The application of live bacteria on human skin tissue was subsequently tested. Different treatments viz. overnight culture of wild type EcN, 10% zinc oxide solution, or overnight culture of EcN expressing shinorine were applied on human skin explants. Treatments were allowed to equilibrate with skin tissue for 1 hour, after which tissues were exposed to UV radiation. The tissues were then incubated for different durations and subsequently fixed. Cleaved caspase-3 immunohistochemical staining was performed to check for DNA damage. Slides were imaged using Leica Slide Scanner and representative images were captured. The captured images were quantified using ImageJ with a modified, previously published protocol (Crowe and Yue, 2019).
structure (smiles),measurement,setting,value
COC1=C(NCC(=O)O)C[C@@](O)(CO)C/C1=N\[C@@H](CO)C(=O)O [shinorine],preventing and/or reducing UV-induced DNA damage compared to untreated group,"MAA extract applied on human skin tissue, 135 mJ/cm2 UV-A and UV-B, three days post exposure, cleaved caspase-3 IHC",significantly effective
same,efficacy vs. 10% zinc oxide against UV-induced DNA damage,"human skin tissue, 72 h post UV irradiation, comparator 10% ZnO, FIG. 7",significant efficacy; also recorded: significantly more effective
